Measured values: patent publication US12240838B2, “Inhibiting agents for Bruton's tyrosine kinase” (BIOGEN MA INC., priority 2019, dated 2025)

What was measured:
BTK [1] = target: T1, BTK (Homo sapiens (Human), UniProt Q06187); assay: In Vitro BTK Kinase Assay: BTK-POLYGAT-LS ASSAY; assay type: biochemical; conditions: ATP 10 μM, polyGAT 100 nM, BTK 0.25 nM, 30 minutes
In short: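 BTK (0.25 nM final) with 10 μM ATP and 100 nM polyGAT in pH 7.5 Tris buffer with MgCl2, DTT, Triton X-100 and casein; compound titrated 4-fold. Reaction 30 min, stopped with EDTA. Phosphorylation detected by TR-FRET with Tb-PY20 antibody after 45 min at room temperature; IC50 reported.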

BTK [2] = target: T1, BTK; assay: In Vitro PD Assay in Human Whole Blood (pBTK assay); assay type: cell-based; conditions: 37° C. for 30 min, 50% inhibition of ECL signal
In short: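 Heparinized human whole blood was spiked with serially diluted compound (0.1% DMSO final) and held 30 min at 37 °C. Samples were then lysed with protease and phosphatase inhibitors. Total BTK was captured and phosphotyrosine detected, with DMSO-only lysates ± phosphatase inhibitors serving as high and low controls.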

T1 sequence (Q06187 whole entry): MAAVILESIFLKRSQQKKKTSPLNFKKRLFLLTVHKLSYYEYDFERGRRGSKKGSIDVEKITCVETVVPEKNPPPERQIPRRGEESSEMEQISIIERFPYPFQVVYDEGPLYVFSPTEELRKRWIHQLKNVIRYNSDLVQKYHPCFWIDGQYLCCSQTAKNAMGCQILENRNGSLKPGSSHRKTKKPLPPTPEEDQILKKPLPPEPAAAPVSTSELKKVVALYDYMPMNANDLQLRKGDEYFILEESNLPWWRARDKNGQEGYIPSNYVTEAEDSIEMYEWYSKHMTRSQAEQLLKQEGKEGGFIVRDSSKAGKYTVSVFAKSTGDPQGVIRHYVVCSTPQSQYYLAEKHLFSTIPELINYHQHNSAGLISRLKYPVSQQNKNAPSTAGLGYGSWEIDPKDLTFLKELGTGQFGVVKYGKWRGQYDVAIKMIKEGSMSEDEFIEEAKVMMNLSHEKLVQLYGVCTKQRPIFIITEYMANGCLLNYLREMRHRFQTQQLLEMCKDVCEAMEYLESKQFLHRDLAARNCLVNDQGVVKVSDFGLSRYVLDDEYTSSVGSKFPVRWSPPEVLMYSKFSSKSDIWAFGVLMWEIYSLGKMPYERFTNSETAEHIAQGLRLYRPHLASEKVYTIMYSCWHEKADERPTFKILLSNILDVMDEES

CC(C)(C)c1noc(C(=O)N[C@@H]2CCCCc3cc(-c4ccnc(NC(=O)[C@@H]5[C@@H]6COC[C@@H]65)c4)ccc32)n1 [Compound 46, N-((R)-2-(2-((1R,5S,6s)-3-oxabicyclo[3.1.0]hexane-6-carboxamido)pyridin-4-yl)-6,7,8,9-tetrahydro-5H-benzo[7]annulen-5-yl)-3-(tert-butyl)-1,2,4-oxadiazole-5-carboxamide]
IC50 (BTK [1]): ≤ 1 nM
IC50 (BTK [2]): 500 to 10000 nM

CC(C)(C)c1nc(C(=O)N[C@@H]2CCCCc3cc(-c4ccnc(NC(=O)C5CC5)c4)ccc32)no1 [Compound 67, (R)-5-(tert-butyl)-N-(2-(2-(cyclopropanecarboxamido)pyridin-4-yl)-6,7,8,9-tetrahydro-5H-benzo[7]annulen-5-yl)-1,2,4-oxadiazole-3-carboxamide]
IC50 (BTK [1]): ≤ 1 nM
IC50 (BTK [2]): ≤ 100 nM

Cc1cc(-c2ccnc(NC(=O)C3CC3)c2)ccc1[C@@H](C)NC(=O)c1noc(C(C)(C)C)n1 [Compound 19, (R)-5-(tert-butyl)-N-(1-(4-(2-(cyclopropanecarboxamido)pyridin-4-yl)-2-methylphenyl)ethyl)-1,2,4-oxadiazole-3-carboxamide]
IC50 (BTK [1]): ≤ 1 nM
IC50 (BTK [2]): ≤ 100 nM

Cc1cc(-c2ccnc(NC(=O)C3CC3)c2)ccc1CNC(=O)c1cnc(C(C)(C)C)s1 [Compound 81, 2-(tert-butyl)-N-(4-(2-(cyclopropanecarboxamido)pyridin-4-yl)-2-methylbenzyl)thiazole-5-carboxamide]
IC50 (BTK [1]): 1 to 10 nM
IC50 (BTK [2]): 500 to 10000 nM

CC(C)(C)c1nc(C(=O)NCc2ccc(-c3ccnc(NC(=O)C4CC4)c3)cc2C2CC2)no1 [Compound 77, 5-(tert-butyl)-N-(4-(2-(cyclopropanecarboxamido)pyridin-4-yl)-2-cyclopropylbenzyl)-1,2,4-oxadiazole-3-carboxamide]
IC50 (BTK [1]): ≤ 1 nM
IC50 (BTK [2]): 100 to 500 nM

CC(C)(C)c1nc(C(=O)NCc2ccc(-c3ccnc(NC(=O)C4CC4)c3)cc2OC(F)(F)F)no1 [Compound 107, 5-(tert-butyl)-N-(4-(2-(cyclopropanecarboxamido)pyridin-4-yl)-2-(trifluoromethoxy)benzyl)-1,2,4-oxadiazole-3-carboxamide]
IC50 (BTK [1]): ≤ 1 nM
IC50 (BTK [2]): ≤ 100 nM

CC(C)(C)c1noc(C(=O)N[C@@H]2CCCCc3cc(-c4ccnc(NC(=O)[C@@H]5CC56CCC6)c4)ccc32)n1 [Compound 42, 3-(tert-butyl)-N-((R)-2-(2-((R)-spiro[2.3]hexane-1-carboxamido)pyridin-4-yl)-6,7,8,9-tetrahydro-5H-benzo[7]annulen-5-yl)-1,2,4-oxadiazole-5-carboxamide]
IC50 (BTK [1]): ≤ 1 nM
IC50 (BTK [2]): 500 to 10000 nM

Cc1cc(-c2ccnc(NC(=O)C3CC34CCC4)c2)ccc1CNC(=O)c1noc(C(C)(C)C)n1 (stereo not shown) [Compound 36]
IC50 (BTK [1]): 1 to 10 nM
IC50 (BTK [2]): > 10000 nM

Cc1cc(-c2ccnc(NC(=O)C3CC3)c2F)ccc1CNC(=O)c1noc(C(C)(C)C)n1 [Compound 44, 5-(tert-butyl)-N-(4-(2-(cyclopropanecarboxamido)-3-fluoropyridin-4-yl)-2-methylbenzyl)-1,2,4-oxadiazole-3-carboxamide]
IC50 (BTK [1]): 1 to 10 nM
IC50 (BTK [2]): 500 to 10000 nM

C[C@@H](NC(=O)c1nc(C(C)(C)C)no1)c1cc(F)c(-c2ccnc(NC(=O)C3CC3)c2)cc1Cl [Compound 70, (R)-3-(tert-butyl)-N-(1-(2-chloro-4-(2-(cyclopropanecarboxamido)pyridin-4-yl)-5-fluorophenyl)ethyl)-1,2,4-oxadiazole-5-carboxamide]
IC50 (BTK [1]): ≤ 1 nM
IC50 (BTK [2]): 500 to 10000 nM

CC(C)(C)c1nc(C(=O)NC2CCCOc3cc(-c4ccnc(NC(=O)C5CC5)c4)ccc32)no1 (stereo not shown) [Compound 65, 5-(tert-butyl)-N-(8-(2-(cyclopropanecarboxamido)pyridin-4-yl)-2,3,4,5-tetrahydrobenzo[b]oxepin-5-yl)-1,2,4-oxadiazole-3-carboxamide]
IC50 (BTK [1]): ≤ 1 nM
IC50 (BTK [2]): 100 to 500 nM

Cc1cc(-c2ccnc(NC(=O)C3CC3)c2)c(F)cc1CNC(=O)c1nc(C(C)(C)C)no1 [Compound 12, 3-(tert-butyl)-N-(4-(2-(cyclopropanecarboxamido)pyridin-4-yl)-5-fluoro-2-methylbenzyl)-1,2,4-oxadiazole-5-carboxamide]
IC50 (BTK [1]): ≤ 1 nM
IC50 (BTK [2]): 100 to 500 nM

CC(C)(C)c1ncc(C(=O)NCc2ccc(-c3ccnc(NC(=O)C4CC4)c3)c(F)c2C2CC2)o1 [Compound 30, 2-(tert-butyl)-N-(4-(2-(cyclopropanecarboxamido)pyridin-4-yl)-2-cyclopropyl-3-fluorobenzyl)oxazole-5-carboxamide]
IC50 (BTK [1]): 1 to 10 nM
IC50 (BTK [2]): > 10000 nM

C[C@@H](NC(=O)c1noc(C(C)(C)C)n1)c1ccc(-c2ccnc(NC(=O)C3CC3)c2)cc1OC(F)(F)F [Compound 83, (R)-5-(tert-butyl)-N-(1-(4-(2-(cyclopropanecarboxamido)pyridin-4-yl)-2-(trifluoromethoxy)phenyl)ethyl)-1,2,4-oxadiazole-3-carboxamide]
IC50 (BTK [1]): 1 to 10 nM
IC50 (BTK [2]): 500 to 10000 nM

Cc1cc(-c2ccnc(NC(=O)C3CC3)c2)ccc1CNC(=O)c1cn(C(C)(C)C)nn1 [Compound 89, 1-(tert-butyl)-N-(4-(2-(cyclopropanecarboxamido)pyridin-4-yl)-2-methylbenzyl)-1H-1,2,3-triazole-4-carboxamide]
IC50 (BTK [1]): 1 to 10 nM
IC50 (BTK [2]): 100 to 500 nM

Cc1c(CNC(=O)c2noc(C(C)(C)C)n2)ccc(-c2cc(NC(=O)C3CC3)ncc2F)c1F [Compound 57, 5-(tert-butyl)-N-(4-(2-(cyclopropanecarboxamido)-5-fluoropyridin-4-yl)-3-fluoro-2-methylbenzyl)-1,2,4-oxadiazole-3-carboxamide]
IC50 (BTK [1]): ≤ 1 nM
IC50 (BTK [2]): 500 to 10000 nM

CC(C)(C)c1noc(C(=O)NCc2ccc(-c3ccnc(NC(=O)C4CC4)c3)cc2OC(F)(F)F)n1 [Compound 80, 3-(tert-butyl)-N-(4-(2-(cyclopropanecarboxamido)pyridin-4-yl)-2-(trifluoromethoxy)benzyl)-1,2,4-oxadiazole-5-carboxamide]
IC50 (BTK [1]): ≤ 1 nM
IC50 (BTK [2]): 500 to 10000 nM

CC(C)(C)c1nc(C(=O)NCc2ccc(-c3ccnc(NC(=O)C4CC4)c3)cc2C(C)(C)C)no1 [Compound 72]
IC50 (BTK [1]): 1 to 10 nM
IC50 (BTK [2]): > 10000 nM

Cc1cc(-c2ccnc(NC(=O)[C@@H]3C[C@@H]3F)c2)ccc1CNC(=O)c1noc(C(C)(C)C)n1 (single isomer, unassigned) [Compound 3]
IC50 (BTK [1]): ≤ 1 nM
IC50 (BTK [2]): ≤ 100 nM

CC(C)(C)n1cc(F)c(C(=O)NCc2ccc(-c3ccnc(NC(=O)C4CC4)c3)c(F)c2C2CC2)n1 [Compound 29, 1-(tert-butyl)-N-(4-(2-(cyclopropanecarboxamido)pyridin-4-yl)-2-cyclopropyl-3-fluorobenzyl)-4-fluoro-1H-pyrazole-3-carboxamide]
IC50 (BTK [1]): 1 to 10 nM
IC50 (BTK [2]): 500 to 10000 nM

Cc1cc(-c2ccnc(NC(=O)C3CC3)c2)ccc1CNC(=O)c1noc(C(C)(C)CO)n1 [Compound 35, N-(4-(2-(cyclopropanecarboxamido)pyridin-4-yl)-2-methylbenzyl)-5-(1-hydroxy-2-methylpropan-2-yl)-1,2,4-oxadiazole-3-carboxamide]
IC50 (BTK [1]): 1 to 10 nM
IC50 (BTK [2]): 500 to 10000 nM

Cc1c(CNC(=O)c2cnc(C(C)(C)C)o2)ccc(-c2ccnc(NC(=O)C3CC3)c2)c1F [Compound 32, 2-(tert-butyl)-N-(4-(2-(cyclopropanecarboxamido)pyridin-4-yl)-3-fluoro-2-methylbenzyl)oxazole-5-carboxamide]
IC50 (BTK [1]): ≤ 1 nM
IC50 (BTK [2]): 500 to 10000 nM

Cc1cc(-c2ccnc(NC(=O)C3CC3)c2)ccc1CNC(=O)c1ncc(C(C)(C)C)o1 [Compound 98, 5-(tert-butyl)-N-(4-(2-(cyclopropanecarboxamido)pyridin-4-yl)-2-methylbenzyl)oxazole-2-carboxamide]
IC50 (BTK [1]): 1 to 10 nM
IC50 (BTK [2]): 500 to 10000 nM
